From publication PMC5218480 (PLoS ONE, 2017) come the findings set out here.

The subject of the assay is MV-4-11 cells. Nature of the assay: Gene expression microarray analysis (Affymetrix PrimeView) and GSEA. It counts as cell-based, human. Also noted: RFU PODN (11730768_x_at) / Fold change /veh PODN (11730768_x_at) / RFU LINC00158 (11744669_a_at) / Fold change /veh LINC00158 (11744669_a_at) / RFU DUSP10 (11751237_a_at) / Fold change /veh DUSP10 (11751237_a_at) / RFU ID3 (11757404_x_at) / Fold change /veh ID3 (11757404_x_at) / RFU PLEKHG5 (11737974_s_at) / Fold change /veh PLEKHG5 (11737974_s_at) / RFU LRRC4B (11730491_at) / Fold change /veh LRRC4B (11730491_at) / RFU GIMAP4 (11747438_a_at) / Fold change /veh GIMAP4 (11747438_a_at) / RFU KRT8 (11758183_x_at) / Fold change /veh KRT8 (11758183_x_at) / RFU CNN1 (11734310_a_at) / Fold change /veh CNN1 (11734310_a_at) / RFU VPS37D (11726825_at) / Fold change /veh VPS37D (11726825_at) / RFU C10orf10 (11716522_x_at) / Fold change /veh C10orf10 (11716522_x_at) / RFU KIR2DL2 /// KIR2DL4 /// KIR2DL5A /// KIR2DL5B /// KIR2DS1 /// KIR2DS2 /// KIR2DS3 /// KIR2DS4 /// KIR3DL3 /// KIR3DL3 /// KIR3DS1 (11738374_at) / Fold change /veh KIR2DL2 /// KIR2DL4 /// KIR2DL5A /// KIR2DL5B /// KIR2DS1 /// KIR2DS2 /// KIR2DS3 /// KIR2DS4 /// KIR3DL3 /// KIR3DL3 /// KIR3DS1 (11738374_at) / RFU C1QL1 (11718748_at) / Fold change /veh C1QL1 (11718748_at) / RFU TMPRSS4 (11747572_a_at) / Fold change /veh TMPRSS4 (11747572_a_at) / RFU HAMP (11756126_x_at) / Fold change /veh HAMP (11756126_x_at) / RFU RNFT2 (11725882_a_at) / Fold change /veh RNFT2 (11725882_a_at) / RFU NR4A2 (11747474_a_at) / Fold change /veh NR4A2 (11747474_a_at) / RFU ABCC12 (11746883_a_at) / Fold change /veh ABCC12 (11746883_a_at) / RFU TMEM136 (11760407_x_at) / Fold change /veh TMEM136 (11760407_x_at) / RFU CLDN22 /// WWC2 (11732394_at) / Fold change /veh CLDN22 /// WWC2 (11732394_at) / RFU HLA-DPB1 (11760878_x_at) / Fold change /veh HLA-DPB1 (11760878_x_at) / RFU SPINT1 (11716480_a_at) / Fold change /veh SPINT1 (11716480_a_at) / RFU GAP43 (11754022_s_at) / Fold change /veh GAP43 (11754022_s_at) / RFU A4GNT (11735810_at) / Fold change /veh A4GNT (11735810_at) / RFU PRB3 (11715151_x_at) / Fold change /veh PRB3 (11715151_x_at) / RFU TUBB4B (11761932_at) / Fold change /veh TUBB4B (11761932_at) / RFU CAPN14 (11732068_a_at) / Fold change /veh CAPN14 (11732068_a_at) / RFU TMCC2 (11721928_a_at) / Fold change /veh TMCC2 (11721928_a_at) / RFU IRGQ (11745062_a_at) / Fold change /veh IRGQ (11745062_a_at) / RFU FAM174B (11720279_a_at) / Fold change /veh FAM174B (11720279_a_at) / RFU TMPRSS4 (11748680_a_at) / Fold change /veh TMPRSS4 (11748680_a_at) / RFU FAM212B (11763350_a_at) / Fold change /veh FAM212B (11763350_a_at) / RFU PLEKHG5 (11743358_a_at) / Fold change /veh PLEKHG5 (11743358_a_at) / RFU ZSCAN30 (11745921_a_at) / Fold change /veh ZSCAN30 (11745921_a_at) / RFU CMKLR1 (11741424_a_at) / Fold change /veh CMKLR1 (11741424_a_at) / RFU LOC101060620 /// MAPK8IP1 (11723275_at) / Fold change /veh LOC101060620 /// MAPK8IP1 (11723275_at) / RFU SPTSSB (11747773_x_at) / Fold change /veh SPTSSB (11747773_x_at) / RFU PRSS12 (11739890_at) / Fold change /veh PRSS12 (11739890_at) / RFU BIN1 (11741810_x_at) / Fold change /veh BIN1 (11741810_x_at) / RFU WNT11 (11732464_a_at) / Fold change /veh WNT11 (11732464_a_at) / RFU C10orf10 (11716521_a_at) / Fold change /veh C10orf10 (11716521_a_at) / RFU C5orf56 (11738089_at) / Fold change /veh C5orf56 (11738089_at) / RFU CYB561 (11721691_x_at) / Fold change /veh CYB561 (11721691_x_at) / RFU ANKRD19P (11752326_a_at) / Fold change /veh ANKRD19P (11752326_a_at) / RFU OR2T12 /// OR2T33 /// OR2T8 (11738714_s_at) / Fold change /veh OR2T12 /// OR2T33 /// OR2T8 (11738714_s_at) / RFU VCAN (11748164_a_at) / Fold change /veh VCAN (11748164_a_at) / RFU JSRP1 (11732532_at) / Fold change /veh JSRP1 (11732532_at) / RFU KRTAP10-11 (11738290_x_at) / Fold change /veh KRTAP10-11 (11738290_x_at) / RFU MYO3A (11730013_a_at) / Fold change /veh MYO3A (11730013_a_at) / RFU EBF3 (11725865_a_at) / Fold change /veh EBF3 (11725865_a_at) / RFU CAMK2N1 (11719241_x_at) / Fold change /veh CAMK2N1 (11719241_x_at) / RFU C5orf56 (11738088_a_at) / Fold change /veh C5orf56 (11738088_a_at) / RFU OLFML3 (11715873_a_at) / Fold change /veh OLFML3 (11715873_a_at) / RFU LOC100653217 /// NTM (11731650_a_at) / Fold change /veh LOC100653217 /// NTM (11731650_a_at) / RFU MAPK11 (11762145_a_at) / Fold change /veh MAPK11 (11762145_a_at) / RFU FIZ1 (11724087_x_at) / Fold change /veh FIZ1 (11724087_x_at) / RFU OASL (11726364_x_at) / Fold change /veh OASL (11726364_x_at) / RFU SOX15 (11748057_x_at) / Fold change /veh SOX15 (11748057_x_at) / RFU CD79A (11719716_a_at) / Fold change /veh CD79A (11719716_a_at) / RFU HIST1H1D (11736915_at) / Fold change /veh HIST1H1D (11736915_at) / RFU CASKIN2 (11723855_a_at) / Fold change /veh CASKIN2 (11723855_a_at) / RFU LOC730098 (11760151_x_at) / Fold change /veh LOC730098 (11760151_x_at) / RFU OR4N2 (11742367_at) / Fold change /veh OR4N2 (11742367_at) / RFU PRRT2 (11749266_a_at) / Fold change /veh PRRT2 (11749266_a_at) / RFU SNX32 (11753110_a_at) / Fold change /veh SNX32 (11753110_a_at) / RFU CDHR5 (11726645_a_at) / Fold change /veh CDHR5 (11726645_a_at) / RFU RCAN1 (11760418_a_at) / Fold change /veh RCAN1 (11760418_a_at) / RFU FAM167A (11723789_a_at) / Fold change /veh FAM167A (11723789_a_at) / RFU FAM26E (11764081_at) / Fold change /veh FAM26E (11764081_at) / RFU ISYNA1 (11749810_s_at) / Fold change /veh ISYNA1 (11749810_s_at) / RFU ACY1 (11761880_at) / Fold change /veh ACY1 (11761880_at) / RFU 11764098_at / Fold change /veh 11764098_at / RFU SAMD14 (11745864_x_at) / Fold change /veh SAMD14 (11745864_x_at) / RFU NPB (11741838_a_at) / Fold change /veh NPB (11741838_a_at) / RFU TMPRSS6 (11731388_a_at) / Fold change /veh TMPRSS6 (11731388_a_at) / RFU KRTAP10-2 (11738614_at) / Fold change /veh KRTAP10-2 (11738614_at) / RFU ARHGAP8 /// PRR5-ARHGAP8 (11727945_x_at) / Fold change /veh ARHGAP8 /// PRR5-ARHGAP8 (11727945_x_at) / RFU KRTAP5-7 /// NADSYN1 (11734609_at) / Fold change /veh KRTAP5-7 /// NADSYN1 (11734609_at) / RFU RASL12 (11751679_a_at) / Fold change /veh RASL12 (11751679_a_at) / RFU CDKN2B (11736163_a_at) / Fold change /veh CDKN2B (11736163_a_at) / RFU PRF1 (11729649_at) / Fold change /veh PRF1 (11729649_at) / RFU, ZNF638 /// ZNF638-IT1 / Fold change vs veh, ZNF638 /// ZNF638-IT1 / RFU, PANK3 / Fold change vs veh, PANK3 / RFU, SH3YL1 / Fold change vs veh, SH3YL1 / RFU, ZEB2 / Fold change vs veh, ZEB2 / RFU, NRIP1 / Fold change vs veh, NRIP1 / RFU, PTTG1IP / Fold change vs veh, PTTG1IP / RFU, CAPN2 / Fold change vs veh, CAPN2 / RFU, MED14 / Fold change vs veh, MED14 / RFU, SNORA58 / Fold change vs veh, SNORA58 / RFU, C1orf63 / Fold change vs veh, C1orf63 / RFU, LRRFIP1 / Fold change vs veh, LRRFIP1 / RFU, NDUFAF7 / Fold change vs veh, NDUFAF7 / RFU, SLC12A2 / Fold change vs veh, SLC12A2 / RFU, IBTK / Fold change vs veh, IBTK / RFU, ESF1 / Fold change vs veh, ESF1 / Fold change vs veh, TMEM50B / RFU, TAOK1 / Fold change vs veh, TAOK1 / RFU, ACBD3 / Fold change vs veh, ACBD3 / RFU, TMA16 / Fold change vs veh, TMA16 / RFU, RWDD3 / Fold change vs veh, RWDD3 / RFU, BCAT1 / Fold change vs veh, BCAT1 / RFU, EDEM3 / Fold change vs veh, EDEM3 / RFU, TMEM33 / Fold change vs veh, TMEM33 / RFU, WDR75 / Fold change vs veh, WDR75 / RFU, AHCTF1 / Fold change vs veh, AHCTF1 / RFU, TFRC / Fold change vs veh, TFRC / RFU, ZDHHC17 / Fold change vs veh, ZDHHC17 / RFU, NOM1 / Fold change vs veh, NOM1 / RFU, ARL8B / Fold change vs veh, ARL8B / RFU, ZBTB11 / Fold change vs veh, ZBTB11 / RFU, TAMM41 / Fold change vs veh, TAMM41 / RFU, KIAA1704 /// LOC100996395 / Fold change vs veh, KIAA1704 /// LOC100996395 / RFU, ING1 / Fold change vs veh, ING1 / RFU, TRMT61B / Fold change vs veh, TRMT61B / RFU, FUBP3 / Fold change vs veh, FUBP3 / RFU, TP53 / Fold change vs veh, TP53 / RFU, TNKS2 / Fold change vs veh, TNKS2 / RFU, ZFP14 / Fold change vs veh, ZFP14 / RFU, ACTR2 / Fold change vs veh, ACTR2 / RFU, PPP3R1 / Fold change vs veh, PPP3R1 / RFU, PIK3R1 / Fold change vs veh, PIK3R1 / RFU, HNRNPA1 / Fold change vs veh, HNRNPA1 / RFU, RNF170 / Fold change vs veh, RNF170 / RFU, ZNF28 / Fold change vs veh, ZNF28 / RFU, RNGTT / Fold change vs veh, RNGTT / RFU, OGT / Fold change vs veh, OGT / RFU, BRD1 / Fold change vs veh, BRD1 / RFU, MARS / Fold change vs veh, MARS / RFU, ZNF655 / Fold change vs veh, ZNF655 / RFU, FAHD1 / Fold change vs veh, FAHD1 / RFU, BDP1 / Fold change vs veh, BDP1 / RFU, LRRCC1 / Fold change vs veh, LRRCC1 / RFU, ARID1A / Fold change vs veh, ARID1A / RFU, ZNF146 / Fold change vs veh, ZNF146 / RFU, ZNF330 / Fold change vs veh, ZNF330 / RFU, GPN3 / Fold change vs veh, GPN3 / RFU, C9orf123 / Fold change vs veh, C9orf123 / RFU, N4BP2L2 / Fold change vs veh, N4BP2L2 / RFU, ARFIP1 / Fold change vs veh, ARFIP1 / RFU, FAM179B / Fold change vs veh, FAM179B / RFU, BCL10 / Fold change vs veh, BCL10 / RFU, UHRF1BP1L / Fold change vs veh, UHRF1BP1L / RFU, BET1 / Fold change vs veh, BET1 / RFU, CNOT2 / Fold change vs veh, CNOT2 / RFU, ZNF268 / Fold change vs veh, ZNF268 / Fold change vs veh, ZNF507 / RFU, DGCR2 / Fold change vs veh, DGCR2 / RFU, WDSUB1 / Fold change vs veh, WDSUB1 / Fold change vs veh, HSP90B1 /// MIR3652 / RFU, ADSS / Fold change vs veh, ADSS / RFU, GK / Fold change vs veh, GK / RFU, ZNF148 / Fold change vs veh, ZNF148 / RFU, TAF9 / Fold change vs veh, TAF9 / RFU, SLC1A5 / Fold change vs veh, SLC1A5 / RFU, SLMO2 / Fold change vs veh, SLMO2 / RFU, ABCC4 / Fold change vs veh, ABCC4 / RFU, LOC101060439 /// RAP1B / Fold change vs veh, LOC101060439 /// RAP1B / RFU, RFX7 / Fold change vs veh, RFX7 / RFU, GTPBP10 / Fold change vs veh, GTPBP10 / RFU, CNEP1R1 / Fold change vs veh, CNEP1R1 / RFU, BIVM-ERCC5 /// ERCC5 / Fold change vs veh, BIVM-ERCC5 /// ERCC5 / RFU, ILF3 / Fold change vs veh, ILF3 / RFU 11762660_at / Fold change /veh 11762660_at / RFU VCAN (11757783_s_at) / Fold change /veh VCAN (11757783_s_at) / RFU DDX43 (11728927_at) / Fold change /veh DDX43 (11728927_at) / RFU KRT8 (11758188_x_at) / Fold change /veh KRT8 (11758188_x_at) / RFU NKD1 (11759106_at) / Fold change /veh NKD1 (11759106_at) / RFU SRD5A1 (11742802_a_at) / Fold change /veh SRD5A1 (11742802_a_at) / RFU TPSAB1 /// TPSB2 (11721975_s_at) / Fold change /veh TPSAB1 /// TPSB2 (11721975_s_at) / RFU GSTM3 (11746129_a_at) / Fold change /veh GSTM3 (11746129_a_at) / RFU IL23R (11737362_x_at) / Fold change /veh IL23R (11737362_x_at) / RFU TMEM51 (11727254_a_at) / Fold change /veh TMEM51 (11727254_a_at) / RFU PIWIL2 (11732686_x_at) / Fold change /veh PIWIL2 (11732686_x_at) / RFU ORM1 (11744905_x_at) / Fold change /veh ORM1 (11744905_x_at) / RFU CCDC152 (11743942_at) / Fold change /veh CCDC152 (11743942_at) / RFU ECM1 (11717891_a_at) / Fold change /veh ECM1 (11717891_a_at) / RFU IL23R (11748794_a_at) / Fold change /veh IL23R (11748794_a_at) / RFU TNFAIP8L3 (11732012_x_at) / Fold change /veh TNFAIP8L3 (11732012_x_at) / RFU MBOAT4 (11741988_at) / Fold change /veh MBOAT4 (11741988_at) / RFU 11764193_at / Fold change /veh 11764193_at / RFU TMEM53 (11763286_at) / Fold change /veh TMEM53 (11763286_at) / RFU MAGEB2 (11727129_at) / Fold change /veh MAGEB2 (11727129_at) / RFU TMEM200A (11744735_a_at) / Fold change /veh TMEM200A (11744735_a_at) / RFU CCDC152 (11751479_a_at) / Fold change /veh CCDC152 (11751479_a_at) / RFU FAM211A (11726209_a_at) / Fold change /veh FAM211A (11726209_a_at) / RFU RGS16 (11746705_a_at) / Fold change /veh RGS16 (11746705_a_at) / RFU VCAN (11755009_s_at) / Fold change /veh VCAN (11755009_s_at) / RFU RHOB (11743442_s_at) / Fold change /veh RHOB (11743442_s_at) / RFU RGS16 (11720943_a_at) / Fold change /veh RGS16 (11720943_a_at) / RFU RGS16 (11720944_at) / Fold change /veh RGS16 (11720944_at) / RFU, VPS4B / Fold change vs veh, VPS4B / RFU, CREB1 / Fold change vs veh, CREB1 / RFU, DNAJC13 / Fold change vs veh, DNAJC13 / RFU, GNAQ / Fold change vs veh, GNAQ / RFU, CDK5R1 / Fold change vs veh, CDK5R1 / RFU, ZRANB3 / Fold change vs veh, ZRANB3 / RFU, CUL4A / Fold change vs veh, CUL4A / RFU, CCNY / Fold change vs veh, CCNY / RFU, UFL1 / Fold change vs veh, UFL1 / RFU, COG3 / Fold change vs veh, COG3 / RFU, DIAPH2 / Fold change vs veh, DIAPH2 / RFU, SKA2 / Fold change vs veh, SKA2 / RFU, AFF3 / Fold change vs veh, AFF3 / RFU, LMF1 / Fold change vs veh, LMF1 / RFU, IPO11 / Fold change vs veh, IPO11 / RFU, DFFB / Fold change vs veh, DFFB / RFU, FOXP1 / Fold change vs veh, FOXP1 / RFU, CARD8 / Fold change vs veh, CARD8 / RFU, STRN3 / Fold change vs veh, STRN3 / RFU, ADK / Fold change vs veh, ADK / RFU, RASSF2 / Fold change vs veh, RASSF2 / RFU, WIPF1 / Fold change vs veh, WIPF1 / RFU, LARP1B / Fold change vs veh, LARP1B / RFU, RASA1 / Fold change vs veh, RASA1 / RFU, RB1 / Fold change vs veh, RB1 / RFU, PPFIA1 / Fold change vs veh, PPFIA1 / RFU, MAT2A / Fold change vs veh, MAT2A / RFU, CCT5 / Fold change vs veh, CCT5 / RFU, WDR92 / Fold change vs veh, WDR92 / RFU, CUX1 / Fold change vs veh, CUX1 / RFU, TTC7A / Fold change vs veh, TTC7A / RFU, TMEM135 / Fold change vs veh, TMEM135 / RFU, DEPTOR / Fold change vs veh, DEPTOR / RFU, CPM / Fold change vs veh, CPM / RFU, DNAJB6 / Fold change vs veh, DNAJB6 / RFU, CACNA2D3 / Fold change vs veh, CACNA2D3 / RFU, DTX4 / Fold change vs veh, DTX4 / RFU, TFCP2 / Fold change vs veh, TFCP2 / RFU, GMCL1 /// GMCL1P1 / Fold change vs veh, GMCL1 /// GMCL1P1 / RFU, AEBP2 / Fold change vs veh, AEBP2 / RFU, SNHG1 /// SNORD22 /// SNORD25 /// SNORD26 /// SNORD27 /// SNORD28 /// SNORD29 /// SNORD31 / Fold change vs veh, SNHG1 /// SNORD22 /// SNORD25 /// SNORD26 /// SNORD27 /// SNORD28 /// SNORD29 /// SNORD31 / Fold change (Aza/veh), C12orf56 (ProbeSet 11735607_a_at) / Fold change (ACY-1035/veh), C12orf56 (ProbeSet 11735607_a_at) / Fold change (Aza/veh), FGFR1OP (ProbeSet 11751329_s_at) / Fold change (ACY-1035/veh), FGFR1OP (ProbeSet 11751329_s_at) / Fold change (Aza/veh), VPS36 (ProbeSet 11739960_a_at) / Fold change (ACY-1035/veh), VPS36 (ProbeSet 11739960_a_at) / RFU SYPL1 (11715823_x_at) / Fold change /veh SYPL1 (11715823_x_at) / RFU IGFBP7 (11715501_s_at) / Fold change /veh IGFBP7 (11715501_s_at) / RFU REEP3 (11722064_at) / Fold change /veh REEP3 (11722064_at) / RFU IGLL1 (11728026_x_at) / Fold change /veh IGLL1 (11728026_x_at): dose or concentration left out as unconfirmed. The following applies: ProbeSet 11726661_s_at; LIST B.

For `Nc1ccc(-c2cccs2)cc1NC(=O)c1ccc2c(c1)cc(C1CC1)n2CCN1CCOCC1` [ACY-1035], the “Fold change vs veh, GPN3” value was 0.89.
